Where “and” joins values, the source holds several entries; their conditions need not be identical. Identical values can stand only once.

Experimental findings from patent publication US20050043551A1, “Method of obtaining 2-(2-nitrovinyl)-furan and the use thereof as a coccidiostatic” (priority 2001, published 2005) are described below.

The nature of series [1]: Oral Half Lethal Dose (LD50) in rats. In kind it is in vivo. The note with it: several solvents, female and male Sprague Dawley rats.
Series [2] concerns intestinal Coccidias (E. perforans, E. magna, E. media, E. exigua). Kind of series: Rabbits inoculated with oocysts of intestinal Eimeria (Example 4). In kind it is in vivo. The note with it: for Weight gain in % during 7 days: 4 μg/mL in drinking water for 5 days; for Mortality: 4 μg/mL, deaths/3 animals. On the procedure:
The 2-(2-nitrovynil)-furan, in a formulation similar to that described in the example 2, was dissolved in rabbits' drinking water and administered daily at libitum for 5 days. Two experiments (I, II), each one with 9 rabbits, were carried out. Each experiment had 3 treatments of 3 animals each one. Among treatments an infected no treated group and a group neither infected nor treated were considered.. In the 1st experiment each rabbit received 61×10^3 those of the 2nd experiment 116×10^3 oocysts of intestinal Coccidias. The present species were E. perforans 38%, E. magna 30%, E. media 22% and E. exigua 10%, with a 97.3% of sporulation. The initial and final weight difference and the deaths of animals after 7 days treatment was used as evaluation criteria.

The format of series [3] is cell-based. As to the method: (§1) In vitro mutagenesis studies were carried out using the micronucleus assay with blockade of cytokinesis with and without metabolic activation, as well as the sister chromatide exchange assay with and without metabolic activation. It was are carried out a theoretical study assisted by computer for the prognosis of the mutagenic activity.

Series [4] deals with E. tenella. Kind of series: Leghorn egg-laying hens naturally infected with E. tenella (Example 3). In kind it is in vivo. The conditions noted are these: 4 μg/mL in drinking water twice a day for 5 days, deaths/2000 birds. From the text:
The 2-(2-nitrovynil)-furan, in a formulation similar to that described in the example 2, was applied, in the drinking water twice a day (8 am and 12 m) for 5 days, to 2000 Leghorn egg-laying hens of 56-84 days of age, infected naturally with E. tenella. Two houses highly infected by caecal coccidiosis with 2000 birds each were there was an average of 119 deaths per house in 5 days were selected. The diagnoses was made by the presence of bloody diarrheas, the observation of typical lesions in the blind intestine and abundant presence of parasite oocysts in the caecal content. Infected birds in a house was left as nontreated control and another no infected as neither infected nor treated control having the same range of age.
To evaluate the effectiveness of the product the approach described in the example 2 was used, except that as weight control. Except that as weight control 10 birds of each pen were randomly selected and weighed at the beginning and the end of the treatment.

Series [5] deals with Coccidia (E. perforans, E. magna, E. media, E. exigua). Put plainly: Oocyst reduction in feces of treated rabbits in production conditions (Example 5). In kind it is in vivo. The note with it: 4 μg/ml in drinking water 5 days, before vs after 7 days. As to the method:
The 2-(2-nitrovynil)-furan, in a formulation similar to that described in the example 2, was dissolved in rabbit's drinking water and administered daily at libitum for 5 days at concentration of 4 μg/ml. It were treated 1 246 newborn, young and adult rabbits of the Chinchilla, New White Zelanda and New Red Zelanda species belonging to 3 rabbit companies. The species of Coccidia present were E. perforans 34%, E. magna 32%, E. media 23% and E. exigua 11%. The amount of oocysts per gram of feces before and after 7 days of the treatment was determined to 20% of all treated animals. The difference between the number of oocysts before and after 7 days of treatment expressed as percentage of oocyst reduction, was taken as efficacy criterium.

Series [6] in a line: In vitro sister chromatide exchange assay. In kind it is cell-based. The conditions noted are these: with and without metabolic activation. On the procedure:
as §1

Series [7] is described as follows: Oral Half Lethal Dose (LD50) in hens. The note with it: several solvents, mature Leghorn hens. In kind it is in vivo.
Series [8] has as its system Eimeria tenella. Put plainly: Artificial infection of chicks with Eimeria tenella oocysts (Example 2). In kind it is in vivo. The conditions noted are these: 1x10^5 E. tenella oocysts oral; for Weight gain in % during 9 days: 9 days treatment; for Mortality: deaths/12 birds. On the procedure: To carried out the assay of the action of the synthesized product, the 2-(2nitrovynil)-furan, it was first dissolved first in an alcoholic solution at 3% and later in water, using several concentrations (2, 4, 8 μg/ml) of the alcohol-water solution, as is shown Table 2.
One day old, male, free of Coccidia, F1 fatten chicks were used. These birds were maintained in an appropriate condition, free of Coccidia until two weeks of age. For feeding, it was used the same food used to fatten chickens but free of anticoccididals.
5 groups of 12 poultry with similar weight were formed which received an inoculation of 1×10^5 oocysts of Eimeria tenella by oral route, using a esophagic canula. The treatment began when chicks had 15 days of age, 24 hours before receiving the inoculation, during a period of 9 days.
To evaluate the effectiveness of the product the gain of weight (% referred to the initial weight) and the death number approaches were used in each tratment.

Setting [9] is: Experiment I, 61 x 10^3 oocysts.
The mark [10] stands for this setting: Experiment II, 116 x 10^3 oocysts.

`O=[N+]([O-])C=Cc1ccco1` [2-(2-nitrovynil)-furan]: the entries for the “Half Lethal Dose (LD50)” value in series [1] and in series [7] were 171.91 mg/kg of body mass and 1.02 g/kg of body mass, respectively. The “Weight gain in % during 7 days” value in series [2] (setting [9]) is listed as 4%; in series [2] (setting [10]) it was 3%. For the same compound, the Mortality result in series [2] (setting [9]) is “no mortality and 0/3”; in series [2] (setting [10]) it was “no deaths and 0/3”; in series [8] (dose 2 μg/mL), 1/12; in series [8] (dose 4 μg/mL), “no deaths and 0/12”; in series [8] (dose 8 μg/mL) it was 0/12. The “Mutagenic activity, micronucleus assay” value in series [3] was “did not shown mutagenic activity”. For the same compound, the “Mortality in 5 days” value in series [4] was “remarkable decrease of mortality and 15/2000”. The “Reduction in % (oocysts per gram of feces)” value in series [5] (Company 1, rabbits) was 90%; in series [5] (Company 2, rabbits), 99%; in series [5] (Company 3, rabbits), 90%. Also, the “Mutagenic activity, sister chromatide exchange assay” value in series [6] is listed as “did not shown mutagenic activity”. Besides, the “Weight gain in % during 9 days” value was 78.79% in series [8] (dose 2 μg/mL) and 63.95% in series [8] (dose 8 μg/mL).
